Biological target: HGFR (c-Met) (Homo sapiens, UniProt P08581)
Assay: HGFR Continuous-Coupled Spectrophotometric Assay
Assay type: biochemical
Conditions: HGFR enzyme 50 nM, Met-2 peptide substrate, 37° C.
Procedure, shortened: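 Human HGFR (50 nM final) phosphorylates the Met-2 activation-loop peptide, with ADP formation coupled through PK/LDH to NADH consumption, read as the A340 decrease over 10 min at 37 °C. Buffer was HEPES pH 7.5 with MgCl2, DTT, PEP and ATP.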

HGFR (c-Met), sequence (P08581 974-1390): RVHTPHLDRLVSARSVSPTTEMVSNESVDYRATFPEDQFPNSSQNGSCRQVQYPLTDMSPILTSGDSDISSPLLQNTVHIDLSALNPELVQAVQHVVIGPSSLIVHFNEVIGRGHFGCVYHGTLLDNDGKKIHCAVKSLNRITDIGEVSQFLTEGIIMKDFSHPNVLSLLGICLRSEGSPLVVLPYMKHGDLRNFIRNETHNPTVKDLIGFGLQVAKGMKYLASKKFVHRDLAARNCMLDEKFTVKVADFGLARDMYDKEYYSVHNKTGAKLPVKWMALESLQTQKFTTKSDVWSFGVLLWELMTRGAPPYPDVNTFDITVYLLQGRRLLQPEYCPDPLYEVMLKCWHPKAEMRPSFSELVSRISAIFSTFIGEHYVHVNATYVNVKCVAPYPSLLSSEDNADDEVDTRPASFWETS

Ki: 40 nM
Structure (SMILES): CC(Oc1cc(-c2ccc3nc(C(=O)N(C)C)cn3c2)cnc1N)c1c(Cl)ccc(F)c1Cl (stereo not shown) [Example 155, 6-{6-amino-5-[1-(2,6-dichloro-3-fluorophenyl)ethoxy]pyridin-3-yl}-N,N-dimethylimidazo[1,2-a]pyridine-2-carboxamide]

From patent US20060178374A1, “Aminoheteroaryl compounds as protein kinase inhibitors” (AGOURON PHARMACEUTICALS, INC., priority 2004, published 2006)
